Assay results published in patent US4455290A, “Inhibition of fibrin polymerization by a peptide isolated from fibrin Fragment D1” (Research Corporation, priority 1981, dated 1984).
Peptide text beside a SMILES is read from it.

How the values were obtained:
bovine serum albumin = bovine serum albumin (Bos taurus, UniProt P02769); test: Equilibrium binding of 125-I D1 Peptide, bovine serum albumin
Excerpt: Acta 133, 376-379 (1979).

thrombin fibrin monomer = target: T1, thrombin fibrin monomer (Homo sapiens, UniProt P02671+P02675+P02679); test: Inhibition of fibrin monomer polymerization (absorbance at 350 nm), thrombin fibrin monomer; format: biochemical; settings: molar excess of D1 Peptide to fibrin monomer of 100-1000 fold; Sephadex gel equilibrium system; kind of fibrin monomer not stated
T1 construct: Thrombin cleaves the bonds Aα16 Arg-17 Gly and Bβ14 Arg-15 Gly, releasing two molecules of fibrinopeptide A and two molecules of fibrinopeptide B; made in house; host or cells: not recombinant: made from fibrinogen by treatment with thrombin
T1 sequence (P02671 36-629 isoform P02671-2): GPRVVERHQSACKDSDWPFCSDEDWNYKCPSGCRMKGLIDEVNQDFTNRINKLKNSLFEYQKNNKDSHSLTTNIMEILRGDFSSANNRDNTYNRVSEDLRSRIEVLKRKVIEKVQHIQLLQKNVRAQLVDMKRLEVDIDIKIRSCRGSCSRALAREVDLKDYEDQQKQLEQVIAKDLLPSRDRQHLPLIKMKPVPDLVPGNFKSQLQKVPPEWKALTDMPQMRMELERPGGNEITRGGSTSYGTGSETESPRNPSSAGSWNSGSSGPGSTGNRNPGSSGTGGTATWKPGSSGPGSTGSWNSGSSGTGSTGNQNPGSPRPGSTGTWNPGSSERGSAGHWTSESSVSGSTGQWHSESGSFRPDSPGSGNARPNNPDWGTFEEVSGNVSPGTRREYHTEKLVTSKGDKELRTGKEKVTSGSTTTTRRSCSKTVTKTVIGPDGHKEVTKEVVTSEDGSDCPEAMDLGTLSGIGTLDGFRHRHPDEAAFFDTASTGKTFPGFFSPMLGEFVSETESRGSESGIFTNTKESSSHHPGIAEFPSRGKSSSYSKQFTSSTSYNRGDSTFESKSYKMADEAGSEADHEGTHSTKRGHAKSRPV
T1 sequence (P02675 45-491): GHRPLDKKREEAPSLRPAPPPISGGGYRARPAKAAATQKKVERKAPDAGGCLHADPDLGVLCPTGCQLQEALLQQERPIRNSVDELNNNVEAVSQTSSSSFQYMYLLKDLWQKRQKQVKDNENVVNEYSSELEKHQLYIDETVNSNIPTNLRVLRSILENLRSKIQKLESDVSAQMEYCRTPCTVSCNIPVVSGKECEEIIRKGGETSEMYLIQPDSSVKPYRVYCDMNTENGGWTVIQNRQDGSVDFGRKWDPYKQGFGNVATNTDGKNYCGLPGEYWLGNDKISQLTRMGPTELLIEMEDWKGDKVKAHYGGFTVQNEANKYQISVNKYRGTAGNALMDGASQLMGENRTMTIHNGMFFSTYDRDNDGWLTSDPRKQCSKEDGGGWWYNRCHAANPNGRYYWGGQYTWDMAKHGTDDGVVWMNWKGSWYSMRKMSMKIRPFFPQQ
T1 sequence (P02679 27-437 isoform P02679-2): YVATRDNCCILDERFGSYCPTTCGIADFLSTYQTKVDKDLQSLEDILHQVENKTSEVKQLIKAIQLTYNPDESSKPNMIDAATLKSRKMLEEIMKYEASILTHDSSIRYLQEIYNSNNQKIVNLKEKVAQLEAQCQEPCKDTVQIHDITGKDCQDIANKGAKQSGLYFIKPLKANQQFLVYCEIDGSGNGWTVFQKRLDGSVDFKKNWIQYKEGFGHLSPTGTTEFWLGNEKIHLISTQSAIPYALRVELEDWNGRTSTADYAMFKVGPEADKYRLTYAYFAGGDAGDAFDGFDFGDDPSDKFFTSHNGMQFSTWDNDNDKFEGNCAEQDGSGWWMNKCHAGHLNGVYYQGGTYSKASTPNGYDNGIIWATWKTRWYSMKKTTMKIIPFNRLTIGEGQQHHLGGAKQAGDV
Method: (§1) Fibrin monomer was prepared according to the method of Belitser et al, Biochem. Biophys. Acta 154, 367-375 (1968) using either thrombin or batroxobin (an enzyme from the venom of Bothrops atrox). The polymerization of fibrin monomer which was formed by batroxobin (lacking fibrinopeptide A) or by thrombin (lacking fibrinopeptides A and B) was inhibited by D1 Peptide. Polymerization was measured spectrophotometrically at 350 nm as has been described in Budzynski, Biochem. Biophys. Acta 584, 284-287 (1979). […] At zero time the recorder was started and 0.01 ml of fibrin monomer (1.5 mg/ml in 0.02M acetic acid) was added, the cells were inverted, and the increase in absorbance at 350 nm was measured continuously for 15 min or until plateau levels were reached. For batroxobin fibrin monomer 0.15 ml of buffer or buffer containing D1 Peptide was mixed with 0.05 ml of batroxobin fibrin monomer (1.5 mg/ml in 0.02M acetic acid). The initial rate of polymerization was calculated from the slope of the steepest part of the curve and expressed as the increase in absorbance per min (A350 ·min^-1).

[1] = target: T2, batroxobin fibrin monomer (Homo sapiens, UniProt P02671+P02675+P02679); test: Inhibition of fibrin monomer polymerization (absorbance at 350 nm), batroxobin fibrin monomer; format: biochemical
T2 construct: fibrin monomer which was formed by batroxobin (lacking fibrinopeptide A); made in house; host or cells: not recombinant: made from fibrinogen by treatment with batroxobin (Bothrops atrox venom enzyme)
T2 sequence (P02671 36-629 isoform P02671-2): T1 sequence (P02671 36-629 isoform P02671-2)
T2 sequence (P02675 31-491): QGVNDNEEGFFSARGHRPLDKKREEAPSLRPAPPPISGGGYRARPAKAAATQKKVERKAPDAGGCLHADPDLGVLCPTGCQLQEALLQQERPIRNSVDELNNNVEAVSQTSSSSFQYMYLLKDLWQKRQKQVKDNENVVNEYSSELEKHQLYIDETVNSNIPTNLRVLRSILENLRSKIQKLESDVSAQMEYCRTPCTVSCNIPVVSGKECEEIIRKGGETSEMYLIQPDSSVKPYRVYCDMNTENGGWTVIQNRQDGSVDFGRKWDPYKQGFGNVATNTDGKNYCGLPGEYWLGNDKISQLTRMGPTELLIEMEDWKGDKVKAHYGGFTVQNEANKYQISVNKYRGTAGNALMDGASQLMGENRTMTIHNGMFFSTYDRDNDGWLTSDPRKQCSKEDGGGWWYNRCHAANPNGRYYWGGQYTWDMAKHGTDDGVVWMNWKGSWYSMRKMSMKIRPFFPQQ
T2 sequence (P02679 27-437 isoform P02679-2): T1 sequence (P02679 27-437 isoform P02679-2)
Method: as §1
In order to assess the effect of D1 Peptide on fibrin monomer polymerization over a wide range of concentrations, batroxobin fibrin monomer concentration was varied from 3.3×10^-8 M to 1.75×10^-7 M and the maximum rate of polymerization measured in the absence or presence of 2.5×10^-7 M D1 Peptide (FIG. 5). […]

bovine serum albumin, sequence (P02769 25-607): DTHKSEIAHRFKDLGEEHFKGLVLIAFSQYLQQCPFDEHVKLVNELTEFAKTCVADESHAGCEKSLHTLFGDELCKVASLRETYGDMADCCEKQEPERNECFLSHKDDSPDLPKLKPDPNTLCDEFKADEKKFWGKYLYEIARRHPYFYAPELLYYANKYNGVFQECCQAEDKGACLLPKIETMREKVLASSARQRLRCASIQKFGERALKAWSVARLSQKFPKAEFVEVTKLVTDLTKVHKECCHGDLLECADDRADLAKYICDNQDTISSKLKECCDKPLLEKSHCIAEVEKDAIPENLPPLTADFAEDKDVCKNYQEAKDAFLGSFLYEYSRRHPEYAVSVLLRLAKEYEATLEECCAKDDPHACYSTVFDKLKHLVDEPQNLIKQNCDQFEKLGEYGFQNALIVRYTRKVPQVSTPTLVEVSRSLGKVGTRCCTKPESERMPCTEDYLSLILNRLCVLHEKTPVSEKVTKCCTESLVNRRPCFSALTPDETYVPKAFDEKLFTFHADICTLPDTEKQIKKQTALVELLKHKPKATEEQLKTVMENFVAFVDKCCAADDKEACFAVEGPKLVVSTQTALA

CC[C@H](C)[C@H](NC(=O)[C@H](CCCCN)NC(=O)[C@H](CCSC)NC(=O)[C@@H](NC(=O)[C@@H](NC(=O)[C@H](CCCCN)NC(=O)[C@H](CCCCN)NC(=O)[C@H](CCSC)NC(=O)[C@H](CO)NC(=O)[C@H](Cc1ccc(O)cc1)NC(=O)[C@H](Cc1c[nH]c2ccccc12)NC(=O)[C@H](CCCNC(=N)N)NC(=O)[C@@H](N)[C@@H](C)O)[C@@H](C)O)[C@@H](C)O)C(=O)N[C@H](C(=O)N1CCC[C@H]1C(=O)N[C@@H](Cc1ccccc1)C(=O)N[C@@H](CC(N)=O)C(=O)N[C@@H](CCCNC(=N)N)C(=O)N[C@@H](CC(C)C)C(=O)N[C@H](C(=O)N[C@H](C(=O)NCC(=O)N[C@@H](CCC(=O)O)C(=O)NCC(=O)N[C@@H](CCC(N)=O)C(=O)N[C@@H](CCC(N)=O)C(=O)N[C@@H](Cc1c[nH]cn1)C(=O)N[C@@H](Cc1c[nH]cn1)C(=O)N[C@@H](CC(C)C)C(=O)NCC(=O)NCC(=O)N[C@@H](C)C(=O)N[C@@H](CCCCN)C(=O)N[C@@H](CCC(N)=O)C(=O)N[C@@H](C)C(=O)NCC(=O)N[C@@H](CC(=O)O)C(=O)N[C@H](C(=O)O)C(C)C)[C@@H](C)CC)[C@@H](C)O)[C@@H](C)CC [D1 Peptide] (H-TRWYSMKKTTMKIIPFNRLTIGEGQQHHLGGAKQAGDV-OH)
binding to bovine serum albumin (bovine serum albumin): no measurable binding
lag time in the fibrin monomer polymerization (thrombin fibrin monomer): more than 30 min
mode of inhibition of polymerization ([1]; batroxobin fibrin monomer 3.3×10^-8 M to 1.75×10^-7 M): competitive inhibitor
concentration of fibrin monomer necessary to achieve the same rate of polymerization (apparent [FM]) ([1]; maximum rate 0.2 A350·min^-1, D1 Peptide 2.6×10^-7 M, 7.8×10^-8 M without peptide): 142 nM
